What is called IC50 is the concentration that gives 50% inhibition.

These results are taken from patent US20260242415A1 (priority 2022, published 2026).

Assay [1] addresses SARS-CoV-2 spike protein (Severe acute respiratory syndrome coronavirus 2, UniProt P0DTC2). Format: binding. The arrangement: key: Results labeled “−” represent decreased binding; Results labeled “0” represent substantially similar binding; Results labeled “1” represent the original sequence; Results labeled “+” represent about 105-200% binding; Results labeled “++” represent about 200-300% binding; Results labeled “+++” represent about 300-500% binding; Results labeled “++++” represent over about 500% binding.

Assay [2] relates to SARS2-S pseudotyped VSV, Delta.
The subject of assay [3] is SARS2-S pseudotyped VSV, Alpha.
The test system of assay [4] is SARS2-S pseudotyped VSV, Omicron BA.2.
The subject of assay [5] is SARS2-S pseudotyped VSV, Omicron BA.1.
Assay [6] relates to SARS2-S pseudotyped VSV, Beta.
The subject of assay [7] is omicron variant. The following applies: cited from earlier work.

In the case of RRPREQIIAGSLWVF [SEQ ID NO: 24], the “binding standardized to SEQ ID NO: 1” value in assay [1] was “−”.

`CC[C@H](C)[C@@H]1NC(=O)[C@H](CCC(N)=O)NC(=O)[C@H](CCC(=O)O)NC(=O)[C@H](CCCNC(=N)N)NC(=O)[C@@H]2CCCN2C(=O)[C@H](CCCNC(=N)N)NC(=O)[C@H](CCCNC(=N)N)NC(=O)[C@H](Cc2ccc(O)cc2)NC(=O)CSC[C@@H](C(=O)NCC(N)=O)NC(=O)[C@H](Cc2ccccc2)NC(=O)[C@H](C(C)C)NC(=O)[C@H](Cc2c[nH]c3ccccc23)NC(=O)[C@H](CC(C)C)NC(=O)[C@H](CO)NC(=O)CNC(=O)[C@H]([C@@H](C)CC)NC(=O)[C@H]([C@@H](C)CC)NC1=O` [Compound S1b3inL1]: the IC50 was 3.5 µM in assay [2]; 2.6 µM in assay [3]; 3.5 µM in assay [4]; 5.2 µM in assay [5]; 5.2 µM in assay [6].

For RAPREQIIIGSLWVF [SEQ ID NO: 17], the “binding standardized to SEQ ID NO: 1” value in assay [1] is recorded as “−”.

Consider RRPREQIIIGSAWVF [SEQ ID NO: 27], for which, in assay [1], the “binding standardized to SEQ ID NO: 1” value is “−”.

RRPREQIIIGSLAVF [SEQ ID NO: 28]: the “binding standardized to SEQ ID NO: 1” value in assay [1] was “−”.

Take Sotrovimab: the “fold loss in potency / decrease in activity against omicron” value in assay [7] is given as 3 fold.

As to RRPREQIIIGSLWVF [Compound S1b3inL1], in assay [1], the “binding standardized to SEQ ID NO: 1” value was 1.

For RRPREQIIIASLWVF [SEQ ID NO: 25], the “binding standardized to SEQ ID NO: 1” value in assay [1] is given as “−”.

For the compound ARPREQIIIGSLWVF [SEQ ID NO: 16], in assay [1], the “binding standardized to SEQ ID NO: 1” value is “−”.

For RRPREQIAIGSLWVF [SEQ ID NO: 23], in assay [1], the “binding standardized to SEQ ID NO: 1” value is “−”.

As to RRPAEQIIIGSLWVF [SEQ ID NO: 19], the “binding standardized to SEQ ID NO: 1” value in assay [1] was found to be 0.

RRPREQIIIGALWVF [SEQ ID NO: 26]: the “binding standardized to SEQ ID NO: 1” value in assay [1] is given as “−”.

For the compound RRPREQAIIGSLWVF [SEQ ID NO: 22], the “binding standardized to SEQ ID NO: 1” value in assay [1] is listed as “−”.
